The NIST ThermoML archive (doi:10.1016/j.fluid.2017.10.023)
Numbers after ± are expanded uncertainties.

Experiment: xn = mol fraction of the nth substance listed
Conditions: 313.15 K; for surface tension liquid-gas: Pendant drop shape; for mass density: Liquid, Vibrating tube method

For `CCCCC` [pentane] + C, the surface tension liquid-gas (x2 = 0.048) was 12 ± 0.2 mN/m, the surface tension liquid-gas (x2 = 0.101) was 10.13 ± 0.21 mN/m and the surface tension liquid-gas (x2 = 0.181) was 7.61 ± 0.18 mN/m. For the same molecule, the surface tension liquid-gas (x2 = 0.263) was 5.37 ± 0.16 mN/m, the surface tension liquid-gas (x2 = 0.351) was 3.26 ± 0.14 mN/m and the surface tension liquid-gas (x2 = 0.43) was 1.68 ± 0.11 mN/m. For the same molecule, the surface tension liquid-gas (x2 = 0.501) was 0.761 ± 0.1 mN/m, the mass density (x2 = 0.048) was 594.4 ± 1.1 kg/m3 and the mass density (x2 = 0.101) was 581 ± 1.2 kg/m3. For the same molecule, the mass density (x2 = 0.181) was 558.8 ± 1.3 kg/m3, the mass density (x2 = 0.263) was 533.1 ± 1.4 kg/m3 and the mass density (x2 = 0.351) was 501.8 ± 1.7 kg/m3. The mass density (x2 = 0.43) was 466.3 ± 1.9 kg/m3 and the mass density (x2 = 0.501) was 431.5 ± 2 kg/m3.
